Reference: PubChem BioAssay (NCI)
Where “and” joins values, the source holds several entries; their conditions need not be identical. Identical values can stand only once.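 Values below derive from 48-hour exposures of cells grown in 96-well plates, with endpoints linearly interpolated between the two concentrations bracketing the appropriate inhibition level. GI50: concentration for 50% inhibition of growth. At the TGI there is no net growth.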

What was measured:
Assay in all cases: NCI tumour cell line growth inhibition, 48 h
786-0 renal = system: 786-0 renal
ACHN renal = system: ACHN renal
CCRF-CEM leukemia = system: CCRF-CEM leukemia
EKVX NSCLC = system: EKVX NSCLC
HOP-92 NSCLC = system: HOP-92 NSCLC
NCI-H522 lung = system: NCI-H522 lung
SR leukemia = system: SR leukemia

Row | Structure (SMILES) | TGI (786-0 renal) [µM] | TGI (ACHN renal) [µM] | TGI (CCRF-CEM leukemia) [µM] | TGI (EKVX NSCLC) [µM] | TGI (HOP-92 NSCLC) [µM] | TGI (NCI-H522 lung) [µM] | TGI (SR leukemia) | GI50 (CCRF-CEM leukemia) [µM] | GI50 (HOP-92 NSCLC) [µM] | GI50 (NCI-H522 lung) [µM] | GI50 (SR leukemia) [µM]
1 | CC(=O)O[C@H]1[C@@H](OC2CCCC2(c2ccccc2)c2ccccc2)O[N+]([O-])=C[C@@]12COCc1cc3c(cc12)OCO3 (stereo partly drawn) | 22 | > 43.6 | > 24.5 | > 25.7 | 30.7 | 5.35 | > 23.6 µM | – | – | – | –
2 | O=C1C=CC[C@H](/C=C/C[C@@H](O)C[C@H](O)/C=C/c2ccccc2)O1 | 29.6 | 27.8 | 19.1 | 25.2 | 13.7 | 18 | – | – | – | – | –
3 | CCN(CC)c1nc(N(C)C)c2ccc(OC)cc2n1 | 89.3 | 59.6 | – | 21.8 | > 100 | 30.3 | 31.4 µM | – | – | – | –
4 | COc1ccc(C(=O)/C=C/c2ccc(OCC(=O)O)cc2)cc1 | > 100 | > 100 | > 100 | > 100 | > 100 | > 100 | > 100 µM | – | – | – | –
5 | CC1(C)CCCCCC(C)(CCCCCCCCCCCO)C1=O (stereo not drawn) | 29.8 | 25.7 | 29.7 | 32 | 31.2 | 31.1 | 14.3 µM | – | – | – | –
6 | O=c1oc2cccnc2n1CCN1CCN(c2ccc(Oc3ccccc3)cc2)CC1 | > 100 | > 100 | > 100 | > 100 | > 100 | > 100 | > 100 µM | – | – | – | –
7 | COc1cc(/C=C/c2sc3ccccc3[n+]2C)ccc1N(C)C | 24.8 | 28.6 | 13.9 | > 100 | 34.9 | 15.8 | 7.71 µM and 36.3 µM | 3.76 | 13 | 0.467 | 6.85
8 | COC1=CC(=O)c2c(O)ccc(O)c2C1=O | 28 | 34.4 | 43.6 | 37.8 | 33 | 26 | – | – | – | – | –
9 | CCCC(=O)/C=C/S/C=C/C(=O)CCC | 4.98 | 6.92 | – | 10.6 | – | 4.2 | – | – | – | – | –
10 | O=C1OC2c3ccccc3C(=O)C2(c2ccccc2)N1c1ccccc1 (stereo not drawn) | > 200 | > 200 | > 200 | > 200 | > 200 | > 200 | – | – | – | – | –
11 | COc1cc(CNC(=O)[C@H](Cc2ccc(O)cn2)NC(C)=O)cc(OC)c1 | > 100 | > 100 | > 100 | > 100 | 75.5 | > 100 | – | – | – | – | –
12 | O/N=C1/CCCCCC1NO (stereo not drawn) | > 100 | > 100 | – | > 100 | > 100 | – | – | – | – | – | –
13 | O=C1N(CN2CCOCC2)CN(CN2CCOCC2)C(=O)N1Cc1ccccc1 | 71.8 | > 100 | 75.8 | > 100 | 73 | 29 | 40.7 µM | – | – | – | –
14 | N#CC(C#N)=Cc1ccc(C=C2SC3=C(SCCS3)S2)s1 | > 100 | > 100 | > 100 | > 100 | > 100 | > 100 | – | – | – | – | –
15 | C[C@@H]1OC(=O)C[C@H]2CC(=O)N(CCC3CN(S(=O)(=O)C(F)(F)F)c4ccc(Cc5ccc6c(c5)C(CCN5C[C@H]7[C@@H](CC(=O)O[C@H]7C)CC5=O)CN6S(=O)(=O)C(F)(F)F)cc43)C[C@@H]21 (stereo partly drawn) | > 100 | > 100 | > 100 | > 100 | > 100 | – | – | – | – | – | –
16 | O=c1c2ccccc2c2c1c1c3ccccc3c(=O)c1c1c3ccccc3c(=O)c21 | > 100 | > 100 | > 100 | > 100 | – | > 100 | > 100 µM | – | – | – | –
17 | CN(C)CS/C(N)=N\C(O)C(Cl)(Cl)Cl (stereo not drawn) | > 100 | > 100 | > 100 | > 100 | > 100 | > 100 | > 100 µM | – | – | – | –
18 | COc1cc(S(=O)(=O)Nc2ccc(-c3csc(N4C(=O)C(C)SC4c4ccccc4O)n3)cc2)ccc1Cl (stereo not drawn) | > 100 | > 100 | > 100 | > 100 | > 100 | 37 | > 100 µM | – | – | – | –
19 | CC(=O)O[C@H]1[C@H](OC(C)=O)[C@@H](CN=[N+]=[N-])OCO[C@@H]1CN=[N+]=[N-] | > 100 | > 100 | > 100 | > 100 | > 100 | > 100 | > 100 µM | – | – | – | –
20 | COc1cc(C2c3[nH]c4ccc(F)cc4c3C[C@H]3COC(=O)N23)cc(OC)c1O (stereo partly drawn) | 26 | 26.4 | > 100 | 92.3 | > 100 | 35.5 | – | – | – | – | –
21 | CC(=O)N1C(C(=O)NNc2ccccc2)CSC1c1ccccc1 (stereo not drawn) | > 100 | > 100 | > 100 | > 100 | > 100 | > 100 | > 100 µM | – | – | – | –
22 | O=C(Nc1ccccc1)Nn1c(-c2cccs2)nc2ccc(I)cc2c1=O | > 100 | > 100 | 60.8 | 58.6 | 59.7 | 44.7 | 47.9 µM | – | – | – | –
23 | CN(C)CCCNC(=O)c1cc(NC(=O)c2cc(NC(=O)[C@H]3C[C@@H]3C(=O)Nc3cc(C(=O)Nc4cc(C(=O)NCCCN(C)C)n(C)c4)n(C)c3)cn2C)cn1C | > 100 | > 100 | > 100 | > 100 | 7.96 | > 100 | > 100 µM | – | – | – | –
24 | COc1ccc(-c2oc3cc(OC)c(OC)c(OC)c3c(=O)c2OC)cc1OC | > 100 | > 100 | > 100 | > 100 | > 100 | > 100 | – | – | – | – | –
25 | c1ccc(/N=N\Nc2ccc(-c3nc4ccccc4o3)cc2)nc1 | > 100 | > 100 | – | 88.2 | > 100 | > 100 | > 100 µM | – | – | – | –
26 | COP(=O)(OC)C(O)/C=C/c1ccco1 (stereo not drawn) | > 100 | > 100 | – | > 100 | > 100 | > 100 | > 100 µM | – | – | – | –
27 | C=CCOC(=O)CCCCCCCCCCCCCCCOC(=O)c1c(CCC[C@@H](C)O[Si](C)(C)C(C)(C)C)nc(=O)n2c1CC[C@H]2CC1(CC/C=C\[C@H](CC)O[Si](C(C)C)(C(C)C)C(C)C)OCCO1 | 77.2 | > 100 | > 100 | > 100 | 41.9 | > 100 | – | – | – | – | –
